According to US20080182125A1, “Cationic latex as a carrier for bioactive ingredients and its use in wallboard manufacture” (priority 2006, published 2008):
Read-outs that look alike come from different tables or passages of the source.

Columns and labels:
fungal species [1] = assay: 30-III fungal test on 1"X1" chip of dried latex, 7 days; assay type: cell-based; conditions: 7 day incubation, FIG. 5
Excerpt: FIG. 5 is a graph showing the results of a 30-III fungal test, based on making a 1″X1″ chip of the dried latex, inoculating the fungal species directly on to the sample, and then observing its growth after 7 days.
The 30-III fungal test was based on making a 1″X1″ chip of the dried latex and inoculating the fungal species directly on to the sample and then observing its growth after 7 days.

[2] = Solubility of additives used in polymerization; assay type: physicochemical
fungal species [3] = assay: ASTM D-3273 second round test of coated paper, 28 days, spores in humidity chamber; assay type: cell-based; conditions: increased coating thickness, FIG. 6
Procedure: FIG. 6 is a graph showing the results of a second round of testing of coated paper samples, tested according to ASTM D-3273 over a period of 28 days. In this study, the fungal species were not directly inoculated on the surface, but rather, were maintained in the humidity chamber as spores that would then land on the surface of the coated paper.
A second round of testing was performed using an increased coating thickness to ensure full coverage of the paper surface. The second round of testing of the coated paper samples were tested according to ASTM D-3273. In this study, the duration remained the same (28 days), but the fungal species were not directly inoculated on the surface. Rather, they were maintained in the humidity chamber as spores that would then land on the surface of the coated paper as in a real world example. The results of this study are outlined in FIG. 6.

[4] = Stability of additive under polymerization conditions; assay type: physicochemical; conditions: incorporated in relatively high amounts
Excerpt: Ideally, the materials are substantially unreactive during the polymerization conditions, so they are not degraded during polymerization. In some embodiments, low levels of additive might be observed, whether due to degradation, or difficulty in extraction from the polymer latex. In any case, retention of the additive in the latex leads to retention of antifungal properties in the finished paper.
The polymerization temperature was investigated as a potential contributor to degradation, and it was kept as low as was feasible (typically <70° C.). The samples were stripped at the end of polymerization to the desired solids content.

[5] = additives used in polymerization, solubility in monomer or water

Compound | Fungal inhibition, 30-III test (fungal species [1]) | Solubility [2, 5] | Antifungal effectiveness, ASTM D-3273 (fungal species [3]) | also measured
Cc1ccc(S(=O)(=O)C(I)I)cc1 [Amical AF, Diiodomethyltoluyl sulfone] | some fungal inhibition | Limited | effective | Degradation during polymerization [4]: degraded
[Na+].[O-]c1ccccc1-c1ccccc1 [Microban P2, Sodium orthophenyl phenate] | – | Solid. Water | – | –
CCCC1COC(Cn2cncn2)(c2ccc(Cl)cc2Cl)O1 (stereo not shown) [Microban PZ, Propiconazole] | – | – | – | Solubility [2]: Fairly soluble
CC(C)(C)C(O)(CCc1ccc(Cl)cc1)Cn1cncn1 (stereo not shown) [Microban TZ, Tebuconazole] | – | Fairly soluble | – | –
Oc1cc(Cl)ccc1Oc1ccc(Cl)cc1Cl [Triclosan, Chlorodiphenyl ether] | – | Solid. Fairly | – | –
Zinc pyrithione [Microban Z01] | performed well | – | did not perform well | –
